Data on one compound can be found in patent US20090136579A1, “Nanoparticles Comprising a PDGF Receptor Tyrosine Kinase Inhibitor” (priority 2006, published 2009).

Entries after “also recorded” stand apart in the source; their conditions may differ. Like-named read-outs stand apart in the source and are kept apart here.

The subject of one test is rabbit vein graft. Put plainly: Rabbit vein graft failure model (vein autograft implanted into carotid artery). Type of test: in vivo. The following applies: graft treated for 30 min, Imatinib 10% w/v; 4 weeks. The source says: A rabbit vein autograft is implanted into a carotid artery to prepare a rabbit vein graft failure model. In this model, a lumen stenosis due to neointimal formation develops after 4 weeks.

Test [1] relates to Human coronary artery arterial vascular SMCs. Particulars: for inhibition of PDGF-BB induced SMC proliferation, dose dependence: free Imatinib 0.1, 1, 10 μM, PDGF-BB 10 ng/ml.
Description: Human coronary artery arterial vascular SMCs (Cambrex Bio Science Walkersville, Inc) are seeded on 48-well culture plates (FALCON 354506 BIOCOAT CELL WARE Human Fibronectin) at 5×10^3 cells per well (n=6 per group) in SM-BM with 10% FBS. After 24 hours, the cells are starved for 72 hours in serum free medium to obtain quiescent non-dividing cells. After starvation, recombinant PDGF-BB (Sigma) 10 ng/m^1 is added. […] These wells are washed with PBS before PDGF stimulation. Four days later, the cells are fixed with methanol and stained with Diff-Quick staining solution (Baxter). A single observer who is blinded the experimental protocol counted the number of cells/plate under a microscope for quantification of SMC proliferation.
Another test has as its system Rat aortic SMCs. The following applies: for inhibition of PDGF-BB induced SMC migration, dose dependence: free Imatinib 0.1, 1, 10 μM, PDGF-BB 10 ng/ml.
Where [2] appears, read: listed as non-encapsulated Imatinib.
Where [3] appears, read: free Imatinib at 0.1 μM, listed as free Imatinib.

Description for Rat aortic SMCs: Migration of rat aortic SMCs is assessed with a Boyden chamber type cell migration assay kit housing a collagen-precoated polycarbonate membrane with 8.0-μm pores (Chemicon), as we previously described (Ono H, Ichiki T, et al. Arterioscler Thromb Vasc Biol. 2004; 24:1634-9.). SMCs are grown to semiconfluent and then made quiescent in serum free medium for 24 hours before migration. The cells (1×10^5 cells/ml) are added to the upper chamber of the membrane (n=6 per group) and allowed to migrate through the pores. […] These cells are washed with PBS before PDGF stimulation. SMCs are then exposed. to PDGF-BB (10 ng/ml) in the lower chamber for 4 hours, after which non-migrated cells are removed from the upper chamber using a cotton swab. The SMCs that migrate to the lower side of the filter are fixed in methanol, stained with Diff-Quick staining solution (Baxter), and counted under a microscope for quantification of SMC migration.

Turning to `Cc1ccc(NC(=O)c2ccc(CN3CCN(C)CC3)cc2)cc1Nc1nccc(-c2cccnc2)n1` [Imatinib, N-{5-[4-(4-methylpiperazino-methyl)-benzoylamido]-2-methylphenyl}-4-(3-pyridyl)-2-pydmidine-amine], the “neointimal formation of vein graft” value in the test on rabbit vein graft is “No suppression”. Moreover, the “inhibition of PDGF-BB induced SMC proliferation, dose dependence” value in test [1] is “dose-dependently reduces”; in test [1] (listed as free Imatinib), “dose-dependent manner”; in test [1] (setting [2]) it was “dose-dependent manner”. Besides, the “effect on PDGF-induced SMC proliferation” value is “no effect” in test [1] (free Imatinib at 0.1 μM), “no effects” in test [1] (setting [3]) and “normalizes; also recorded: completely abolishes” in test [1] (free Imatinib at 10 μM). In addition, the “inhibition of PDGF-BB induced SMC migration, dose dependence” value with Rat aortic SMCs was “dose-dependent inhibitory effect”; in the test with Rat aortic SMCs (listed as free Imatinib) it was “dose-dependent manner”; in the test with Rat aortic SMCs (setting [2]) it was “dose-dependent manner”. Also, the “effect on PDGF-induced SMC migration” value is listed as “no effect” in the test with Rat aortic SMCs (free Imatinib at 0.1 μM), “no effects” in the test on Rat aortic SMCs (setting [3]) and “normalizes” in the test with Rat aortic SMCs (free Imatinib at 10 μM).
